Legend:
Assay in all cases: Ray2010 Assay 74
[1] = molecular target: 5-hydroxytryptamine receptor 6 (Homo sapiens, UniProt P50406)
Excerpt: (§1) Table S2 shows raw Ki data for the current study combined with data collected from the literature for the ten additional compounds.

[2] = molecular target: T1, Muscarinic acetylcholine receptor M2 (Homo sapiens, UniProt P08172)
T1 sequence (P08172 whole entry): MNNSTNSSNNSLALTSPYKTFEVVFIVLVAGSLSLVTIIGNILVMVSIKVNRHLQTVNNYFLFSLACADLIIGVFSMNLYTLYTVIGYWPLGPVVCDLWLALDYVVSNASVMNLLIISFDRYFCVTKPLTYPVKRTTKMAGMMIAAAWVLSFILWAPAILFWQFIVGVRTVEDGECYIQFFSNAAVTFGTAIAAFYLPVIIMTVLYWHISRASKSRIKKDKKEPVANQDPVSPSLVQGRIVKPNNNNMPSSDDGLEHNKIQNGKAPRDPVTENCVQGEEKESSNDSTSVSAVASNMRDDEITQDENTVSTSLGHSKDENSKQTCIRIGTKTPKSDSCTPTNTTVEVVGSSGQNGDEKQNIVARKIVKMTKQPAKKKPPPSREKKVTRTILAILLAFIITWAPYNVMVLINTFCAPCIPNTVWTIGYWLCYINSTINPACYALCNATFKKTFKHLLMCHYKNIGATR
Excerpt: as §1

[3] = molecular target: T2, 5-hydroxytryptamine receptor 1A (Homo sapiens, UniProt P08908)
T2 sequence (P08908 whole entry): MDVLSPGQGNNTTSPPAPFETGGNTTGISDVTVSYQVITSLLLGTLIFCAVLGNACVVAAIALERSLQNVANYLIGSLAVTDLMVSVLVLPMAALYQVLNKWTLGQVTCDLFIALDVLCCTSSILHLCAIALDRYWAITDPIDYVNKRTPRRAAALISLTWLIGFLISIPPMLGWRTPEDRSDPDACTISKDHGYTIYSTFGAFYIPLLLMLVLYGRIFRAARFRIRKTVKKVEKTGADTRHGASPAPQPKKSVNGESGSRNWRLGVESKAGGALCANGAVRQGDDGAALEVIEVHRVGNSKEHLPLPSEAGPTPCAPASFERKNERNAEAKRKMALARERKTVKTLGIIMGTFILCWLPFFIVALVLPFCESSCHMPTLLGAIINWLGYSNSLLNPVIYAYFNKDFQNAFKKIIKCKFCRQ
Excerpt: as §1

Histamine H1 receptor = Histamine H1 receptor (Homo sapiens, UniProt P35367)
Excerpt: as §1

[4] = molecular target: T3, Muscarinic acetylcholine receptor M5 (Homo sapiens, UniProt P08912)
T3 sequence (P08912 whole entry): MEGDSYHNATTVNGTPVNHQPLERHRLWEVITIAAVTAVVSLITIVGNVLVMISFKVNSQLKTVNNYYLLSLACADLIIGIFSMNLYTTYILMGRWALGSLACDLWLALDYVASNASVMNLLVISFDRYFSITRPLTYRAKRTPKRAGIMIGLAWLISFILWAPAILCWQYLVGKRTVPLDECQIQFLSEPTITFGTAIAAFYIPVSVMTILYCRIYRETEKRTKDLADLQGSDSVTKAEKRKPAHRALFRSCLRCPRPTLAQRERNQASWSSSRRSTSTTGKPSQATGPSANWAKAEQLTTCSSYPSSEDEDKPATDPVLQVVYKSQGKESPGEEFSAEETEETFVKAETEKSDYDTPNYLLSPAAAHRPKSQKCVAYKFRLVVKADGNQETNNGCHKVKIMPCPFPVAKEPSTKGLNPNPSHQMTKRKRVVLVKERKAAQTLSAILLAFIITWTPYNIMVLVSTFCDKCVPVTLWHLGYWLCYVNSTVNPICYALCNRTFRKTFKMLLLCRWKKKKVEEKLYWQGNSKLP
Excerpt: as §1

[5] = molecular target: 5-hydroxytryptamine receptor 1E (Homo sapiens, UniProt P28566)
Excerpt: as §1

[6] = molecular target: T4, Alpha-1B adrenergic receptor (Homo sapiens, UniProt P35368)
T4 sequence (P35368 whole entry): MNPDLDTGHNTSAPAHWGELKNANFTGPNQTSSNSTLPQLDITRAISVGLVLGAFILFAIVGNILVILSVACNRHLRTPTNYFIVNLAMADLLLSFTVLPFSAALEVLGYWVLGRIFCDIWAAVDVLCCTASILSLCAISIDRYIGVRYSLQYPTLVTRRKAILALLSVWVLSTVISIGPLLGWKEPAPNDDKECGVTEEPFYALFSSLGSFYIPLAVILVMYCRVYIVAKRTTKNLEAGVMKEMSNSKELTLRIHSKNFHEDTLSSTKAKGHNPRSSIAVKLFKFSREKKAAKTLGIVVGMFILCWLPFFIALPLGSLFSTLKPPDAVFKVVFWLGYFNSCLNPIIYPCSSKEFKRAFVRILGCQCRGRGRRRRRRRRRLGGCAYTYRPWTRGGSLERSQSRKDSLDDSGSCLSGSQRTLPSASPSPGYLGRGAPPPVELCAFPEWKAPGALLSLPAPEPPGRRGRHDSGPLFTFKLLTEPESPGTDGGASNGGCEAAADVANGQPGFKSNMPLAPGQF
Excerpt: as §1

Histamine H4 receptor = Histamine H4 receptor (Homo sapiens, UniProt Q9H3N8)
Excerpt: as §1

[7] = molecular target: T5, 5-hydroxytryptamine receptor 3A (Homo sapiens, UniProt P46098)
T5 sequence (P46098 whole entry): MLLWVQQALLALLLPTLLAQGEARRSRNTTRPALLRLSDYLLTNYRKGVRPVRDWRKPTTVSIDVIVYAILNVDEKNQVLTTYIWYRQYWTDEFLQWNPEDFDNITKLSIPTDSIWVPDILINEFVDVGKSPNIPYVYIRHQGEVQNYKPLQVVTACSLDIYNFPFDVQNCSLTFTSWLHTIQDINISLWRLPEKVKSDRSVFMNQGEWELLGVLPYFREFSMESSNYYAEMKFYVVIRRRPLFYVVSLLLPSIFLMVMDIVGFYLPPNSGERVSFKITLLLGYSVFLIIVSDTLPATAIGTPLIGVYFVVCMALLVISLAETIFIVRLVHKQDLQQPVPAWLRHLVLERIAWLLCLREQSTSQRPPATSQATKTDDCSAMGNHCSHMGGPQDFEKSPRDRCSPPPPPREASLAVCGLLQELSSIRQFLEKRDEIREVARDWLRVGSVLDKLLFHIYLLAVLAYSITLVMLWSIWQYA
Excerpt: as §1

[8] = molecular target: Glutamate receptor ionotropic, NMDA 2A (Homo sapiens, UniProt Q12879)
Excerpt: as §1

[9] = molecular target: 5-hydroxytryptamine receptor 1D (Homo sapiens, UniProt P28221)
Excerpt: as §1

[10] = molecular target: Beta-1 adrenergic receptor (Homo sapiens, UniProt P08588)
Excerpt: as §1

D(2) dopamine receptor = D(2) dopamine receptor (Homo sapiens, UniProt P14416)
Excerpt: as §1

Chain of 5-hydroxytryptamine receptor 1D (P28221 whole entry): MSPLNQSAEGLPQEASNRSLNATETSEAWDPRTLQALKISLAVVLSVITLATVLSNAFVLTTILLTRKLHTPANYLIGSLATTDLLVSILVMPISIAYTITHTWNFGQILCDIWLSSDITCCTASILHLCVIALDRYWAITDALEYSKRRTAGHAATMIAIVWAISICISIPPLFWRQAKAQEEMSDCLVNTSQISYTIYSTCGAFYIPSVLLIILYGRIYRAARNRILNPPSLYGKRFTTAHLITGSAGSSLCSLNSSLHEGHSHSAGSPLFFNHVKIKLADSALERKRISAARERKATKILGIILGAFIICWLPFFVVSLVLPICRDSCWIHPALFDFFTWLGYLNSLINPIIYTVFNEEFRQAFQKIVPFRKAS
Chain of D(2) dopamine receptor (P14416 whole entry): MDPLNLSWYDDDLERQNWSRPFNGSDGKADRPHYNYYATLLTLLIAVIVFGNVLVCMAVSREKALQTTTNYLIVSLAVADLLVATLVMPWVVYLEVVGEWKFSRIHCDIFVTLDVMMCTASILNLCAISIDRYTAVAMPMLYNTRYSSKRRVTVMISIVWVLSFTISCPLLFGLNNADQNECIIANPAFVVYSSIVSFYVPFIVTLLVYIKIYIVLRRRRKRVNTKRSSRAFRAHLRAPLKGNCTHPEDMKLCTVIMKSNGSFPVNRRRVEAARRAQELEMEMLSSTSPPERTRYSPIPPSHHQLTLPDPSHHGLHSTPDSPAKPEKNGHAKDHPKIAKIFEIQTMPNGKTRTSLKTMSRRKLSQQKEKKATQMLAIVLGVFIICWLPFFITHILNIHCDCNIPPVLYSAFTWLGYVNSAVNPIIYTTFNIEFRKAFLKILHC
Chain of Histamine H4 receptor (Q9H3N8 whole entry): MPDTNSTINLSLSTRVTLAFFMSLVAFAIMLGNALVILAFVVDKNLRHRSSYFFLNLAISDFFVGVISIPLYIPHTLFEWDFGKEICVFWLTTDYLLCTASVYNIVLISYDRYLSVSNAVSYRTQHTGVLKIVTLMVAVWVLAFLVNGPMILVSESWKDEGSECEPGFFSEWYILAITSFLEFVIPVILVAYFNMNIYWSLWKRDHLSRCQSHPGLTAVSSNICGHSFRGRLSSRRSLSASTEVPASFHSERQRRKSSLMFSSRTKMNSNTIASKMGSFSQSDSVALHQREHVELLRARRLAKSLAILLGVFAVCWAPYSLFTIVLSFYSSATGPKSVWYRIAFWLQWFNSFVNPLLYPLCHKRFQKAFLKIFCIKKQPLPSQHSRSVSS
Chain of Beta-1 adrenergic receptor (P08588 whole entry): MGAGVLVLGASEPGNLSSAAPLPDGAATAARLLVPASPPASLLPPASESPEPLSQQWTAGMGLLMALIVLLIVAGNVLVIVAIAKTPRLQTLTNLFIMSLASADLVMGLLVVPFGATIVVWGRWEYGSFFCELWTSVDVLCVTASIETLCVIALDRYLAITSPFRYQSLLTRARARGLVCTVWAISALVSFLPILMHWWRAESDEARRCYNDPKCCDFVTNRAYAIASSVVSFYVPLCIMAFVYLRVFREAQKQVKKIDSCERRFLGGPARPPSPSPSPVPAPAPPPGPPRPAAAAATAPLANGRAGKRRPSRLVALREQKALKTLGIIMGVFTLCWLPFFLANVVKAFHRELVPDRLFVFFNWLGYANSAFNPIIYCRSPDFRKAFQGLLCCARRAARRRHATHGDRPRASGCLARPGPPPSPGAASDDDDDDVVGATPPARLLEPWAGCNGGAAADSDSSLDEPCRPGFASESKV
Chain of 5-hydroxytryptamine receptor 1E (P28566 whole entry): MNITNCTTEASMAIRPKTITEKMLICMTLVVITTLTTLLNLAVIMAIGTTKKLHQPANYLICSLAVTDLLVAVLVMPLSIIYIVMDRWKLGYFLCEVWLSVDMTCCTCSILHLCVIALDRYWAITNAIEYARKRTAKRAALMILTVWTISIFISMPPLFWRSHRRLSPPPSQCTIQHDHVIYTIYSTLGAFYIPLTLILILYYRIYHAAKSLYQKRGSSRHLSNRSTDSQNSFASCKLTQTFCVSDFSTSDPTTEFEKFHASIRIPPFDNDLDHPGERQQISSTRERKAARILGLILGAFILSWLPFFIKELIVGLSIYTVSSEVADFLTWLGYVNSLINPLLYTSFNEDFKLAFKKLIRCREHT
Chain of 5-hydroxytryptamine receptor 6 (P50406 whole entry): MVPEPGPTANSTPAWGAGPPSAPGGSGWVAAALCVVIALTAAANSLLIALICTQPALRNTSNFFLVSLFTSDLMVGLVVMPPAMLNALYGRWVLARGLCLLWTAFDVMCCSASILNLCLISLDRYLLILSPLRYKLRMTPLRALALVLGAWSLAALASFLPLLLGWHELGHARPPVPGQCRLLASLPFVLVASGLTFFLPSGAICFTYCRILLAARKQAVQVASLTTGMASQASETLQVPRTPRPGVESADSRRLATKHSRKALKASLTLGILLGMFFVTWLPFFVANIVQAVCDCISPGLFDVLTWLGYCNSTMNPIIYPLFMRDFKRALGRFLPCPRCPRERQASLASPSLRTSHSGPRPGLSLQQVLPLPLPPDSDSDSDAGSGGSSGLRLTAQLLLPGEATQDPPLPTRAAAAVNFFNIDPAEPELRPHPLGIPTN
Chain of Histamine H1 receptor (P35367 whole entry): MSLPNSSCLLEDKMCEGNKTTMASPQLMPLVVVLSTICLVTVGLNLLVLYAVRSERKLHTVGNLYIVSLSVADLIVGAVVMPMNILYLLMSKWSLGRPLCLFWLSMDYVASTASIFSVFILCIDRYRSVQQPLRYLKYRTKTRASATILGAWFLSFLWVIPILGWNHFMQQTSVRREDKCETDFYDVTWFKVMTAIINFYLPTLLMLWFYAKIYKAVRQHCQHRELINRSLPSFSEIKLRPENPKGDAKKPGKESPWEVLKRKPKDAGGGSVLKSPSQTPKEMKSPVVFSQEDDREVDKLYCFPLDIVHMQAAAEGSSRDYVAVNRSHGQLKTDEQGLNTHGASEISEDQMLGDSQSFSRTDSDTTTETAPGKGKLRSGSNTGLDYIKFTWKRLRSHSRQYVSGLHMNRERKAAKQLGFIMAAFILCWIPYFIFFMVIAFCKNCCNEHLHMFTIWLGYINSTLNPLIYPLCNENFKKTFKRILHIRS
Chain of Glutamate receptor ionotropic, NMDA 2A (Q12879 whole entry): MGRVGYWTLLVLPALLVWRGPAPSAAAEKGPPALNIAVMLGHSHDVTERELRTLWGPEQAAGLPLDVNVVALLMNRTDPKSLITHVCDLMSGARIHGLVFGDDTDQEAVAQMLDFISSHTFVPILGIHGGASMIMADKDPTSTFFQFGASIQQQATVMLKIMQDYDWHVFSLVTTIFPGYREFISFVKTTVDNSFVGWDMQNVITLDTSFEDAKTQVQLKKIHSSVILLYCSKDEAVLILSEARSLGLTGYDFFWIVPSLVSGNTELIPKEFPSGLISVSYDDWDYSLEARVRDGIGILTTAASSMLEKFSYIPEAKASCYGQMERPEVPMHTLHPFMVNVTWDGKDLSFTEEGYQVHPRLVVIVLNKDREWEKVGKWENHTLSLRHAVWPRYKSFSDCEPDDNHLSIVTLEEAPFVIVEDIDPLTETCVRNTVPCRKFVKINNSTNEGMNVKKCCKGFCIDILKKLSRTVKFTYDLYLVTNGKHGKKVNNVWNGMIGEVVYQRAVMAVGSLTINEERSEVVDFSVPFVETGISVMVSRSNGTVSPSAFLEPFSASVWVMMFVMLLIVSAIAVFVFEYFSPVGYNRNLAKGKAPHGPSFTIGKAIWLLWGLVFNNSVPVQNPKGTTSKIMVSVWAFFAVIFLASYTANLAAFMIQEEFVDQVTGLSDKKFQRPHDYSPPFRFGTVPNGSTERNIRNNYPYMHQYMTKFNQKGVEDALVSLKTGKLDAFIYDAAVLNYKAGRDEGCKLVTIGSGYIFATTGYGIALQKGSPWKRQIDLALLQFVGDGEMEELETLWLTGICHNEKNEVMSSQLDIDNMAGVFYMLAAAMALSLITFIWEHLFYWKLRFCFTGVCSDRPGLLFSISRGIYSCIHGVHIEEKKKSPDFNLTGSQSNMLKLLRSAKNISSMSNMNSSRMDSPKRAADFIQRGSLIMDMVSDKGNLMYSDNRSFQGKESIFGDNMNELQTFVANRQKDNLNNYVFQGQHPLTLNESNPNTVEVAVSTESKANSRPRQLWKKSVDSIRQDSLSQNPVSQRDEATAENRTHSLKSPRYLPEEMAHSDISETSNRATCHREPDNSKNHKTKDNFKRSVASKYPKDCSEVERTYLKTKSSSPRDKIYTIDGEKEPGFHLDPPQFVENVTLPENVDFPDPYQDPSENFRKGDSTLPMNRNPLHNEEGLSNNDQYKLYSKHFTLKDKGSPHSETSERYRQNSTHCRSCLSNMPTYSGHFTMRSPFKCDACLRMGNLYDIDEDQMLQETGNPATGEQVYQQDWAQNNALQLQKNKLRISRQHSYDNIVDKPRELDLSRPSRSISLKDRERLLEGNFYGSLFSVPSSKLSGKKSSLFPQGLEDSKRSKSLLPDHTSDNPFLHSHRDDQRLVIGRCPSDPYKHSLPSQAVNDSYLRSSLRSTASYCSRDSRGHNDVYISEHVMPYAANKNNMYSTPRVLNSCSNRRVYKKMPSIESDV

Compound	Ki [1]	Ki [2]	Ki [3]	Ki (Histamine H1 receptor)	Ki [4]	Ki [5]	Ki [6]	Ki (Histamine H4 receptor)	Ki [7]	Ki [8]	Ki [9]	Ki [10]	Ki (D(2) dopamine receptor)
CCOc1cc(OC)c(CC(C)N)cc1OC (configuration not stated)	> 10 µM	> 10 µM	> 10 µM	> 10 µM	> 10 µM	> 10 µM	> 10 µM	> 10 µM	> 10 µM	> 10 µM	> 10 µM	> 10 µM	> 10 µM
COc1cc(CC(C)N)cc(OC)c1OC (configuration not stated)	> 10 µM	> 10 µM	1.68 µM	> 10 µM	> 10 µM	3.37 µM	> 10 µM	> 10 µM	> 10 µM	> 10 µM	3.03 µM	> 10 µM	> 10 µM
CCc1cc(OC)c(CC(C)N)cc1OC (configuration not stated)	> 10 µM	> 10 µM	0.0144 µM	> 10 µM	> 10 µM	3.55 µM	> 10 µM	> 10 µM	> 10 µM	> 10 µM	6.62 µM	5.72 µM	> 10 µM
CCSc1cc(OC)c(CC(N)CC)cc1OC (configuration not stated) [1-(4-Ethylsulfanyl-2,5-dimethoxy-benzyl)-propylamine]	> 10 µM	> 10 µM	5.34 µM	> 10 µM	> 10 µM	9.88 µM	> 10 µM	> 10 µM	> 10 µM	> 10 µM	> 10 µM	> 10 µM	> 10 µM
COc1cc(CC(C)N)c(OC)cc1Br (stereo not drawn) [2-(4-Bromo-2,5-dimethoxy-phenyl)-1-methyl-ethylamine((-)-DOB)]	5.53 µM	> 10 µM	2.55 µM	9.12 µM	> 10 µM	1.43 µM	> 10 µM	> 10 µM	> 10 µM	> 10 µM	0.635 µM	2.42 µM	> 10 µM
CCSc1cc(OC)c(CCN)cc1OC [2C-T-2]	1.36 µM	> 10 µM	0.381 µM	> 10 µM	1.5 µM	0.415 µM	> 10 µM	> 10 µM	> 10 µM	> 10 µM	0.0859 µM	9.2 µM	2.79 µM
COc1cc(CCN)cc(OC)c1OC [3,4,5-trimethoxyphenylethylamine]	> 10 µM	> 10 µM	1.84 µM	> 10 µM	> 10 µM	5.2 µM	> 10 µM	> 10 µM	> 10 µM	> 10 µM	> 10 µM	> 10 µM	> 10 µM
COc1ccc2[nH]cc(CCN(C(C)C)C(C)C)c2c1 [5-meo-dipt]	> 10 µM	> 10 µM	0.132 µM	> 10 µM	> 10 µM	> 10 µM	> 10 µM	> 10 µM	> 10 µM	> 10 µM	1.72 µM	> 10 µM	> 10 µM
COc1ccc2[nH]cc(CCN(C)C(C)C)c2c1 [5-meo-mipt]	0.13 µM	> 10 µM	0.0123 µM	4.82 µM	> 10 µM	3.5 µM	> 10 µM	> 10 µM	> 10 µM	> 10 µM	0.0225 µM	> 10 µM	> 10 µM
CN(C)CCc1c[nH]c2cc(F)ccc12 [6-f-dmt]	0.0256 µM	> 10 µM	0.393 µM	0.0466 µM	> 10 µM	0.461 µM	> 10 µM	> 10 µM	> 10 µM	> 10 µM	0.0554 µM	> 10 µM	0.61 µM
COc1cc(CC(C)N)c(OC)cc1C (stereo not drawn) [(+/-)2-(2,5-Dimethoxy-4-methyl-phenyl)-1-methyl-ethylamine]	8.15 µM	> 10 µM	3.66 µM	> 10 µM	> 10 µM	3.54 µM	> 10 µM	> 10 µM	> 10 µM	> 10 µM	0.209 µM	> 10 µM	> 10 µM
CC(C)N(CCc1c[nH]c2ccccc12)C(C)C [dipt]	> 10 µM	> 10 µM	0.12 µM	3.58 µM	> 10 µM	> 10 µM	> 10 µM	> 10 µM	> 10 µM	> 10 µM	3.74 µM	> 10 µM	> 10 µM
CCCN(CCC)CCc1c[nH]c2ccccc12 [dpt]	4.54 µM	> 10 µM	0.0318 µM	0.125 µM	> 10 µM	2.34 µM	0.443 µM	> 10 µM	> 10 µM	> 10 µM	0.619 µM	> 10 µM	9.25 µM
CAS_82830-44-2::(2R)-1-(4-iodo-2,5-dimethoxyphenyl)propan-2-amine::DOI,(-)::US20250270173, Compound DOI	2.11 µM	1.99 µM	2.22 µM	1.76 µM	2.21 µM	1.01 µM	> 10 µM	> 10 µM	> 10 µM	> 10 µM	0.458 µM	0.591 µM	> 10 µM
